A word on the IC50: it is the point on the concentration scale where inhibition reaches its midpoint.

The nature of series [1]: Stereochemical analysis by chiral stationary phase HPLC (atropisomerism). The format is physicochemical. To be noted: chiral stationary phase HPLC (16 different conditions for the examples). Here is the method:
Each of these mobile phase are compatible with the column packings referred to above, providing sixteen different solvent and stationary phase permutations. Modifiers such as triethylamine (0.1%), formic acid (0.1%) may be added to improve the resolution
Semi-preparative Chiral Stationary Phase LC-UV was performed on a Gilson preparative modular system using a Daicel Chiralpak AD semi-prep column ([…], 20×250 mm) and a flow rate of 18 mL/min eluting with an isocratic method over 20 min using […] heptane:IPA and 0.1% triethylamine employing an injection volume of 1.0 mL.

A further series concerns the target recombinant PI3 kinase α (Homo sapiens (Human), UniProt P42336). Kind of series: Enzyme Inhibition Assay (HTRF PI3K enzyme assay, TR-FRET). The format is biochemical. The procedure, abridged: (§1)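 TR-FRET readout after 15-18 hr at RT with biotinylated PIP3, GST-tagged GRP1 PH domain and europium/APC fluorophores; product PIP3 displaces the tracer and lowers the signal. Beforehand, compound and PIP2 were reacted for 2 hr at RT with human recombinant PI3Kα, δ or γ.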
A general note: In TR-FRET formats the signal depends on donor and acceptor labels being close together.

A further series concerns the target recombinant PI3 kinase γ (Homo sapiens (Human), UniProt P48736). Described as above. The format is biochemical. The procedure, abridged: as §1
A further series concerns the target recombinant PI3 kinase δ (Homo sapiens (Human), UniProt O00329). Described as above. Format: biochemical. The procedure, abridged: as §1
For series [2], the system named is PMA-differentiated U937 cells. Kind of series: MTT Assay (cell viability). Format: cell-based, Human. As to conditions: percentage loss of cell viability; for Cell Viability MTT Assay in D-U937 cells at 4 hr: 4 hr in 5% FCS; for Cell Viability MTT Assay in D-U937 cells at 24 hr: 24 hr in 10% FCS. The procedure, abridged:
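Differentiated U937 cells treated with compound for 4 hr (5% FCS) or 24 hr (10% FCS), then given MTT for 1 hr; formazan dissolved in DMSO and absorbance read at 550 nm. Viability loss expressed as % versus 0.5% DMSO vehicle.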

For series [3], the system named is H2O2 induced pAkt in D-U937 cells. The series is described as follows: PI3Kδ Cell Based Assay (H2O2 induced pAkt). To be noted: Homo sapiens. The procedure, abridged: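 Read-out is the pAkt/total Akt signal ratio, measured with anti-pAkt and anti-pan-Akt antibodies after H2O2 stimulation. Cells were U937 monocytes given PMA (100 ng/mL) for 48 to 72 hr. IC50 values fitted from compound serial dilutions.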

[4] abbreviates: activity range, read-out: PI3 Kinase Inhibition IC50 values at stated Isozyme α.
Where [5] appears, read: activity range, read-out: PI3 Kinase Inhibition IC50 values at stated Isozyme γ.
The mark [6] stands for this setting: activity range, read-out: PI3 Kinase Inhibition IC50 values at stated Isozyme δ.
The mark [7] stands for this setting: dU937, read-out: Cellular Activity IC50 values (H2O2 induced pAkt D-U937 Cells).
[8] abbreviates: dU937, activity range, D-U937 cells, read-out: Cellular Activity IC50 values (H2O2 induced pAkt D-U937 Cells).

Structures are written as SMILES. Like-named read-outs stand apart in the source and are kept apart here.

Chain of recombinant PI3 kinase γ (P48736 whole entry): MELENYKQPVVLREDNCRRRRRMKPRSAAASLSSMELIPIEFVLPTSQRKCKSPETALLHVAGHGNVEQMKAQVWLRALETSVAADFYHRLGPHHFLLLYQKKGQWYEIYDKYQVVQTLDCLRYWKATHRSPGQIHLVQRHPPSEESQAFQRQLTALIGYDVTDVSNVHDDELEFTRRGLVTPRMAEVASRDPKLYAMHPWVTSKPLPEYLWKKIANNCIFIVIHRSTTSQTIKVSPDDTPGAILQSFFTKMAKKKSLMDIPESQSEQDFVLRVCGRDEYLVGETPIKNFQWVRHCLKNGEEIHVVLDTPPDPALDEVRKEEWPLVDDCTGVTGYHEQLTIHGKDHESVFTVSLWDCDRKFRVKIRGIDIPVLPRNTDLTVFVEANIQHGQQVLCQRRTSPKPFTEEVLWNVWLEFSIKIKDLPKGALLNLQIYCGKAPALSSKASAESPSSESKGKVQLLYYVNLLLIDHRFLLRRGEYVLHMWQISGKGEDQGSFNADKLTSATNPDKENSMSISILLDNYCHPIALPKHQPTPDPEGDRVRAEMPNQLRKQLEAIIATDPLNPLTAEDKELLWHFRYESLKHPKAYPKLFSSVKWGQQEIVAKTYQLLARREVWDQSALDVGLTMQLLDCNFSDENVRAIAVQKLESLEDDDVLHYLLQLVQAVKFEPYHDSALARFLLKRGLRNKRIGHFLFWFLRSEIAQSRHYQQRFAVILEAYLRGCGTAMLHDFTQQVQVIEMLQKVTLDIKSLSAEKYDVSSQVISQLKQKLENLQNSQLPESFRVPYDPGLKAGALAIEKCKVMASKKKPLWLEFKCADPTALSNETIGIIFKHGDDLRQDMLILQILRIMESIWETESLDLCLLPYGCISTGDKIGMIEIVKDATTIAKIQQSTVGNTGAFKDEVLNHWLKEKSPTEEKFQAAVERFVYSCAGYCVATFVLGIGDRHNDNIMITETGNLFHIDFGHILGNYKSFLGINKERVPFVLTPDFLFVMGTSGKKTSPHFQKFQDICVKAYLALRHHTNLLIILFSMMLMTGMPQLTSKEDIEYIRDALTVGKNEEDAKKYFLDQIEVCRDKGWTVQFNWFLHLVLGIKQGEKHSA
Chain of recombinant PI3 kinase α (P42336 whole entry, the tested form may be a part): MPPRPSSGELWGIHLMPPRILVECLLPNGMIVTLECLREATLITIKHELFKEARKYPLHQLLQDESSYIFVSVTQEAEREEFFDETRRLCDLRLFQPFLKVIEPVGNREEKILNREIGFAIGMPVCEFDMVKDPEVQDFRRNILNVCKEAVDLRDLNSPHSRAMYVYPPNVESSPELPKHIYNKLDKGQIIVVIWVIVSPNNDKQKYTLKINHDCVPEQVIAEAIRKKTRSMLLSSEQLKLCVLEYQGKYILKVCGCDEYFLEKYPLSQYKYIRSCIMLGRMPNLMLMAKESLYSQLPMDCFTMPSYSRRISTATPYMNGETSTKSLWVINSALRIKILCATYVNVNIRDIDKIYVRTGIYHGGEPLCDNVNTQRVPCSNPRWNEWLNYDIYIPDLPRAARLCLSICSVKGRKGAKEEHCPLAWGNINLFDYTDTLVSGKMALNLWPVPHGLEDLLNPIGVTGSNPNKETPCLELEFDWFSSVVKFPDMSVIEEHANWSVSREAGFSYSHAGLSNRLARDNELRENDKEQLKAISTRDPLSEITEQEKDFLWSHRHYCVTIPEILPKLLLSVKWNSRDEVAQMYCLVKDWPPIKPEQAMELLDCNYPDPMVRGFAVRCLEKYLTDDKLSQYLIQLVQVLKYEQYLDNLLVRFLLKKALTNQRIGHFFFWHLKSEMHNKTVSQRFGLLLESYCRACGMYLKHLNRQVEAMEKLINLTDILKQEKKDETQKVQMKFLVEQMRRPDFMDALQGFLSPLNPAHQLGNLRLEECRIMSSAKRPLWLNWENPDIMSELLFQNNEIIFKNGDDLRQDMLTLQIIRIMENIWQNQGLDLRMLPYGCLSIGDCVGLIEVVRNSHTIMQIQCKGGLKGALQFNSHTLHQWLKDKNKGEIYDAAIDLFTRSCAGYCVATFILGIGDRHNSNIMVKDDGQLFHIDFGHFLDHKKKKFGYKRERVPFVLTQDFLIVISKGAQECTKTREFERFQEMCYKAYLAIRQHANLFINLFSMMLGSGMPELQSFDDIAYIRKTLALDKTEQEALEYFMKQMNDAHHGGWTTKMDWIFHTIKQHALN
Chain of recombinant PI3 kinase α (P27986 whole entry partner, the tested form may be a part): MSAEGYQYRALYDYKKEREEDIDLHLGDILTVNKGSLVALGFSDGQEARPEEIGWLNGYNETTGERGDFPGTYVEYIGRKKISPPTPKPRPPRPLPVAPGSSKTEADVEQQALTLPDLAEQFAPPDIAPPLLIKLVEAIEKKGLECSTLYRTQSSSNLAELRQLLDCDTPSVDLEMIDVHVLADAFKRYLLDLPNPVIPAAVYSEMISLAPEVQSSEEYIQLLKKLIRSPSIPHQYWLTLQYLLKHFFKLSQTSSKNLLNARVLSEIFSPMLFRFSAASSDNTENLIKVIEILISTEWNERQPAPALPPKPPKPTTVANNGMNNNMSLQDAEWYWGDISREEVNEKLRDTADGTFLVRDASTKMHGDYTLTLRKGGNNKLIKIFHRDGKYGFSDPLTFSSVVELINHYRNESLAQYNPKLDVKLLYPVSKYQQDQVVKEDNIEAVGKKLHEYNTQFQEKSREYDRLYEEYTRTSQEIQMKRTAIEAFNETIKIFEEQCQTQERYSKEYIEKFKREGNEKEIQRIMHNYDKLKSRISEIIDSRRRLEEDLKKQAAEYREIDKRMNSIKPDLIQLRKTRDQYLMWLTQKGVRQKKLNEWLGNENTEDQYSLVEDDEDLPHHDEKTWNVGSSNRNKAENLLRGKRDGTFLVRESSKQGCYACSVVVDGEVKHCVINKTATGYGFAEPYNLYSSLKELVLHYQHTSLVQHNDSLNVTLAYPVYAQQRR
Chain of recombinant PI3 kinase δ (O00329 whole entry): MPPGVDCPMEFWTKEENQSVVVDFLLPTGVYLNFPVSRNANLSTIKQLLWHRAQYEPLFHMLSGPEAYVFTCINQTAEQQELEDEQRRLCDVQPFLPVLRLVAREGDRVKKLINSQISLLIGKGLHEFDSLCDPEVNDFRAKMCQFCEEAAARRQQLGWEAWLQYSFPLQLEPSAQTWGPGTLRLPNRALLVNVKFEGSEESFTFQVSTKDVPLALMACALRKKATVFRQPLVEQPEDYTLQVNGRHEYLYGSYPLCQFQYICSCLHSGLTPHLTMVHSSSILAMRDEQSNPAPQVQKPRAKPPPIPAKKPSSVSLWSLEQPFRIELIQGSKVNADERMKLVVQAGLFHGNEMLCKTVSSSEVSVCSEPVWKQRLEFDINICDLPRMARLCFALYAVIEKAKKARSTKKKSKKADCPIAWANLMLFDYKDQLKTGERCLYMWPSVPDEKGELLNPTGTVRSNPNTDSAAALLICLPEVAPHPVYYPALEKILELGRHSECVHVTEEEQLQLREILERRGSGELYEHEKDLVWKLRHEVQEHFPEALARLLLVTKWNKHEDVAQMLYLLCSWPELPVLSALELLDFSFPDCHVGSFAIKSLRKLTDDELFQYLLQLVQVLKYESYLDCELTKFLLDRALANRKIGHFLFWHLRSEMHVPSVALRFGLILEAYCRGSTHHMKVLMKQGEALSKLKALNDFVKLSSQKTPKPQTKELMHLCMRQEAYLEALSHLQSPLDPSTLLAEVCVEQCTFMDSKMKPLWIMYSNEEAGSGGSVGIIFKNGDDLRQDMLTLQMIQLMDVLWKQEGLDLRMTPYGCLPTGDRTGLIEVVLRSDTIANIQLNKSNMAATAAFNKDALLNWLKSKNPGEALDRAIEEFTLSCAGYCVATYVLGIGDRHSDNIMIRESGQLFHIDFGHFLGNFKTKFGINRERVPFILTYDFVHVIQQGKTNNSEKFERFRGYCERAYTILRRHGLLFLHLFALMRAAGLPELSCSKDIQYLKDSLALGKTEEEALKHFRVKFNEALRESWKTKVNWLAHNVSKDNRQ
Chain of recombinant PI3 kinase δ (P27986 whole entry partner): as the sequence (P27986 whole entry partner, the tested form may be a part) above

Regarding `C#Cc1cccc2nc(Cn3nc(-c4cccc(O)c4)c4c(N)ncnc43)n(Cc3ccccc3F)c(=O)c12` [Example 12, 2-((4-Amino-3-(3-hydroxyphenyl)-1H-pyrazolo[3,4-d]pyrimidin-1-yl)methyl)-5-ethynyl-3-(2-fluorobenzyl) quinazolin-4(3H)-one], in series [1], the “atropisomerism by chiral stationary phase HPLC” value (from here on “atropisomerism”) was “no evidence for atropisomerism was observed”. For the same molecule, the IC50 on recombinant PI3 kinase α (setting [4]) was 50 to 1000 nM; at recombinant PI3 kinase γ (setting [5]), 50 to 1000 nM; on recombinant PI3 kinase δ (setting [6]), less than 50 nM; in series [3] (setting [7]), less than 10 nM. For the same molecule, the “Cell Viability MTT Assay in D-U937 cells at 4 hr” value in series [2] is “+ (+ >30%)”. The “Cell Viability MTT Assay in D-U937 cells at 24 hr” value in series [2] is recorded as “− (− <30%)”.
Take `C#Cc1cccc2nc(Cn3nc(-c4ccc(O)cc4)c4c(N)ncnc43)n(Cc3ccccc3F)c(=O)c12` [Example 13, 2-((4-Amino-3-(4-hydroxyphenyl)-1H-pyrazolo[3,4-d]pyrimidin-1-yl)methyl)-5-ethynyl-3-(2-fluorobenzyl) quinazolin-4(3H)-one]: the “atropisomerism” value in series [1] is reported as “no evidence for atropisomerism was observed”. The IC50 at recombinant PI3 kinase α (setting [4]) is 50 to 1000 nM; at recombinant PI3 kinase γ (setting [5]), 50 to 1000 nM; on recombinant PI3 kinase δ (setting [6]), less than 50 nM; in series [3] (setting [7]) it was less than 10 nM. Also, the “Cell Viability MTT Assay in D-U937 cells at 4 hr” value in series [2] was “− (− <30%)”. Further, in series [2], the “Cell Viability MTT Assay in D-U937 cells at 24 hr” value is “− (− <30%)”.
As to `C#Cc1cccc2nc(Cn3nc(-c4ccc(O)cc4)c4c(N)ncnc43)n(Cc3cccc(OC)c3)c(=O)c12` [Example 14, 2-((4-Amino-3-(4-hydroxyphenyl)-1H-pyrazolo[3,4-d]pyrimidin-1-yl)methyl)-5-ethynyl-3-(3-methoxybenzyl)quinazolin-4(3H)-one], the “atropisomerism” value in series [1] was “no evidence for atropisomerism was observed”. Also, the IC50 at recombinant PI3 kinase α (setting [4]) was 50 to 1000 nM; on recombinant PI3 kinase γ (setting [5]) it was 50 to 1000 nM; at recombinant PI3 kinase δ (setting [6]), less than 50 nM; in series [3] (setting [8]) it was less than 10 nM. For the same molecule, the “Cell Viability MTT Assay in D-U937 cells at 4 hr” value in series [2] is on record as “− (− <30%)”. The “Cell Viability MTT Assay in D-U937 cells at 24 hr” value in series [2] was “− (− <30%)”.
For the molecule `C#Cc1cccc2nc(Cn3nc(-c4cccc(O)c4)c4c(N)ncnc43)n(Cc3cccc(OC)c3)c(=O)c12` [Example 15, 2-((4-Amino-3-(3-hydroxyphenyl)-1H-pyrazolo[3,4-d]pyrimidin-1-yl)methyl)-5-ethynyl-3-(3-methoxybenzyl)quinazolin-4(3H)-one], in series [1], the “atropisomerism” value is “no evidence for atropisomerism was observed”. For the same molecule, the IC50 on recombinant PI3 kinase α (setting [4]) was more than 1000 nM; at recombinant PI3 kinase α (read-out: PI3 Kinase Inhibition IC50 values at stated Isozyme (nM) α) it was 1970 nM; on recombinant PI3 kinase γ (setting [5]), 50 to 1000 nM; on recombinant PI3 kinase γ (read-out: PI3 Kinase Inhibition IC50 values at stated Isozyme (nM) γ), 289 nM; at recombinant PI3 kinase δ (setting [6]), less than 50 nM; on recombinant PI3 kinase δ (read-out: PI3 Kinase Inhibition IC50 values at stated Isozyme (nM) δ), 4 nM. In addition, the IC50 is less than 10 nM in series [3] (setting [8]) and 0.57 nM in series [3] (dU937, read-out: Cellular Activity IC50 values (H2O2 induced pAkt (nM) D-U937 Cells)). Moreover, the “Cell Viability MTT Assay in D-U937 cells at 4 hr” value in series [2] is on record as “− (− <30%)”. For the same molecule, the “Cell Viability MTT Assay in D-U937 cells at 24 hr” value in series [2] is given as “− (− <30%)”.
For `C#Cc1cccc2nc(Cn3nc(-c4ccc(O)cc4)c4c(N)ncnc43)n(Cc3cccc(C(F)(F)F)c3)c(=O)c12` [Example 16, 2-((4-Amino-3-(4-hydroxyphenyl)-1H-pyrazolo[3,4-d]pyrimidin-1-yl)methyl)-5-ethynyl-3-(3-(trifluoromethyl)benzyl)quinazolin-4(3H)-one], the “atropisomerism” value in series [1] was “no evidence for atropisomerism was observed”. Further, the IC50 on recombinant PI3 kinase α (setting [4]) was 50 to 1000 nM; on recombinant PI3 kinase γ (setting [5]), 50 to 1000 nM; at recombinant PI3 kinase δ (setting [6]) it was less than 50 nM; in series [3] (setting [8]), less than 10 nM. Besides, in series [2], the “Cell Viability MTT Assay in D-U937 cells at 4 hr” value is “− (− <30%)”. Also, the “Cell Viability MTT Assay in D-U937 cells at 24 hr” value in series [2] is “− (− <30%)”.
For the molecule `C#Cc1cccc2nc(Cn3nc(-c4cccc(O)c4)c4c(N)ncnc43)n(Cc3cccc(C(F)(F)F)c3)c(=O)c12` [Example 17, 2-((4-Amino-3-(3-hydroxyphenyl)-1H-pyrazolo[3,4-d]pyrimidin-1-yl)methyl)-5-ethynyl-3-(3-(trifluoromethyl)benzyl)quinazolin-4(3H)-one], the “atropisomerism” value in series [1] is on record as “no evidence for atropisomerism was observed”. Also, the IC50 at recombinant PI3 kinase α (setting [4]) was 50 to 1000 nM; on recombinant PI3 kinase γ (setting [5]), more than 1000 nM; on recombinant PI3 kinase δ (setting [6]) it was less than 50 nM; in series [3] (setting [8]), less than 10 nM. Further, the “Cell Viability MTT Assay in D-U937 cells at 4 hr” value in series [2] is “− (− <30%)”. In addition, in series [2], the “Cell Viability MTT Assay in D-U937 cells at 24 hr” value was “− (− <30%)”.
Consider `C#Cc1cccc2nc(Cn3nc(-c4ccc(O)cc4)c4c(N)ncnc43)n(Cc3ccc(Cl)cc3)c(=O)c12` [Example 18, 2-((4-Amino-3-(4-hydroxyphenyl)-1H-pyrazolo[3,4-d]pyrimidin-1-yl)methyl)-3-(4-chlorobenzyl)-5-ethynyl quinazolin-4(3H)-one], for which the “atropisomerism” value in series [1] is reported as “no evidence for atropisomerism was observed”. Also, the concentration for half-maximal inhibition (IC50) at recombinant PI3 kinase α (setting [4]) was 50 to 1000 nM; on recombinant PI3 kinase γ (setting [5]), 50 to 1000 nM; at recombinant PI3 kinase δ (setting [6]) it was less than 50 nM; in series [3] (setting [8]) it was less than 10 nM. Also, the “Cell Viability MTT Assay in D-U937 cells at 4 hr” value in series [2] was “− (− <30%)”. For the same molecule, the “Cell Viability MTT Assay in D-U937 cells at 24 hr” value in series [2] is “− (− <30%)”.
Regarding `C#Cc1cccc2nc(Cn3nc(-c4cccc(O)c4)c4c(N)ncnc43)n(Cc3ccc(S(C)(=O)=O)cc3)c(=O)c12` [Example 19, 2-((4-Amino-3-(3-hydroxyphenyl)-1H-pyrazolo[3,4-d]pyrimidin-1-yl)methyl)-5-ethynyl-3-(4-(methylsulfonyl)benzyl)quinazolin-4(3H)-one], the “atropisomerism” value in series [1] is given as “no evidence for atropisomerism was observed”. Further, the IC50 at recombinant PI3 kinase α (setting [4]) was 50 to 1000 nM; on recombinant PI3 kinase γ (setting [5]), 50 to 1000 nM; on recombinant PI3 kinase δ (setting [6]), less than 50 nM; in series [3] (setting [8]) it was less than 10 nM. For the same molecule, the “Cell Viability MTT Assay in D-U937 cells at 4 hr” value in series [2] is listed as “− (− <30%)”. Besides, the “Cell Viability MTT Assay in D-U937 cells at 24 hr” value in series [2] was “− (− <30%)”.
On to `C#Cc1cccc2nc(Cn3nc(-c4ccc(O)cc4)c4c(N)ncnc43)n(Cc3ccc(S(C)(=O)=O)cc3)c(=O)c12` [Example 20, 2-((4-Amino-3-(4-hydroxyphenyl)-1H-pyrazolo[3,4-d]pyrimidin-1-yl)methyl)-5-ethynyl-3-(4-(methylsulfonyl)benzyl)quinazolin-4(3H)-one], for which, in series [1], the “atropisomerism” value is “no evidence for atropisomerism was observed”. The half-maximal inhibitory concentration (IC50) is 50 to 1000 nM on recombinant PI3 kinase α (setting [4]), 50 to 1000 nM on recombinant PI3 kinase γ (setting [5]), less than 50 nM at recombinant PI3 kinase δ (setting [6]) and less than 10 nM in series [3] (setting [8]). Also, the “Cell Viability MTT Assay in D-U937 cells at 4 hr” value in series [2] is given as “− (− <30%)”. Moreover, the “Cell Viability MTT Assay in D-U937 cells at 24 hr” value in series [2] is given as “− (− <30%)”.
Consider `C#Cc1cccc2nc(Cn3nc(-c4cccc(O)c4)c4c(N)ncnc43)n(Cc3ccc(C(F)(F)F)cc3)c(=O)c12` [Example 21, 2-((4-Amino-3-(3-hydroxyphenyl)-1H-pyrazolo[3,4-d]pyrimidin-1-yl)methyl)-5-ethynyl-3-(4-(trifluoromethyl)benzyl)quinazolin-4(3H)-one], for which the “atropisomerism” value in series [1] is listed as “no evidence for atropisomerism was observed”. The half-maximal inhibitory concentration (IC50) on recombinant PI3 kinase α (setting [4]) is 50 to 1000 nM; at recombinant PI3 kinase γ (setting [5]), 50 to 1000 nM; at recombinant PI3 kinase δ (setting [6]) it was less than 50 nM; in series [3] (setting [8]), less than 10 nM. In series [2], the “Cell Viability MTT Assay in D-U937 cells at 4 hr” value is given as “− (− <30%)”. In addition, in series [2], the “Cell Viability MTT Assay in D-U937 cells at 24 hr” value is “− (− <30%)”.

The values above are taken from patent publication US9321773B2, “Compounds” (Respivert Ltd, priority 2009, dated 2016).
